Reference: US9926297B2, “Bicyclic AZA compounds as muscarinic M1 receptor and/or M4 receptor agonists” (Heptares Therapeutics Limited, priority 2014, dated 2018)

Key:
[1] = target: T1, human muscarinic M1 receptor (Homo sapiens, UniProt P11229); experiment: Alphascreen Surefire phospho-ERK1/2 functional assay, M1; format: cell-based; details: for EC50: phospho-ERK1/2, * = variable results, read-out: pEC50 M1 (converted); for Emax: CHO, read-out: % Emax cf. ACh, M1, CHO cells stably expressing human M1
T1 sequence (P11229 1-460): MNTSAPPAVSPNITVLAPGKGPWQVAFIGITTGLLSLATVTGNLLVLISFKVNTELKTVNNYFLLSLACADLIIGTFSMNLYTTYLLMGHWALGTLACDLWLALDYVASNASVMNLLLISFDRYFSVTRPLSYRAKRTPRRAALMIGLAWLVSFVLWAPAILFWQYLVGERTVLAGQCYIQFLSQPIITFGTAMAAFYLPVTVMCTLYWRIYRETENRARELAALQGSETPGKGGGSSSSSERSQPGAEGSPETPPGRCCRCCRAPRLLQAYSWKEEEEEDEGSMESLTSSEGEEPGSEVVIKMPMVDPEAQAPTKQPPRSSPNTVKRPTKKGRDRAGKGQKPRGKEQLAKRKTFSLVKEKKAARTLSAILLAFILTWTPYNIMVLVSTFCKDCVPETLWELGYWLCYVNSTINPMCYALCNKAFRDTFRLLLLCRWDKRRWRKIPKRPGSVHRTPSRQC

[2] = target: T2, human muscarinic M4 receptor (Homo sapiens, UniProt P08173); experiment: Alphascreen Surefire phospho-ERK1/2 functional assay, M4; format: cell-based; details: for EC50: phospho-ERK1/2, * = variable results, read-out: pEC50 M4 (converted); for Emax: CHO, read-out: % Emax cf. ACh, M4, CHO cells stably expressing human M4
T2 construct: expressed in transfected cells
T2 sequence (P08173 1-479): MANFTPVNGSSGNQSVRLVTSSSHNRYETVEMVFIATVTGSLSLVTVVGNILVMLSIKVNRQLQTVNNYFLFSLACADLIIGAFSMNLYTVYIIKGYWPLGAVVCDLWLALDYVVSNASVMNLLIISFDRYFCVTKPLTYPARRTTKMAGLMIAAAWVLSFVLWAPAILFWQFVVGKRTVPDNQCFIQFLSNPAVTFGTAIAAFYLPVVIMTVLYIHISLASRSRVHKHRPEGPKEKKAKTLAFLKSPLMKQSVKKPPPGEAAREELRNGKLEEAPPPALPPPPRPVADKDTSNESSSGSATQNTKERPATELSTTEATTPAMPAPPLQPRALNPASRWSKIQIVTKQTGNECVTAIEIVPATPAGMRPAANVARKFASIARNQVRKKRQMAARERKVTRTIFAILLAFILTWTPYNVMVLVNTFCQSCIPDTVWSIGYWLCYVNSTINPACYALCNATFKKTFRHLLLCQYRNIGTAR

[3] = target: T3, human muscarinic M2 receptor (Homo sapiens, UniProt P08172); experiment: Alphascreen Surefire phospho-ERK1/2 functional assay, M2; details: for Emax: CHO, read-out: % Emax cf. ACh, M2, CHO cells stably expressing human M2
T3 sequence (P08172 1-466): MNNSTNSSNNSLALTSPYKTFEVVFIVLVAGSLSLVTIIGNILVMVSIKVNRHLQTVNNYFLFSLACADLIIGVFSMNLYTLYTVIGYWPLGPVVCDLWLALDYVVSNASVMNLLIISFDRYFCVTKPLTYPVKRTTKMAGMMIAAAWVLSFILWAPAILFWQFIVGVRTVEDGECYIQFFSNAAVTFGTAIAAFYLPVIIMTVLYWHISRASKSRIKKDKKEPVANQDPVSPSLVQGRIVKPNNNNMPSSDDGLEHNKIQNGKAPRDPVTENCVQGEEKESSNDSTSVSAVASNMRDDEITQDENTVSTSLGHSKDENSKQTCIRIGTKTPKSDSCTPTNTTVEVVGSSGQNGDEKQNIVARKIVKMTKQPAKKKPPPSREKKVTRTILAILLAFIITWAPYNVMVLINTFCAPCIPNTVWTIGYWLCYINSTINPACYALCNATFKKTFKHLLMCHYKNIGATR

[4] = target: human muscarinic M3 receptor (Homo sapiens, UniProt P20309); experiment: Alphascreen Surefire phospho-ERK1/2 functional assay, M3; details: for Emax: CHO, read-out: % Emax cf. ACh, M3, CHO cells stably expressing human M3; for EC50: pEC50 M3, CHO cells stably expressing human M3
human muscarinic M3 receptor, sequence (P20309 whole entry): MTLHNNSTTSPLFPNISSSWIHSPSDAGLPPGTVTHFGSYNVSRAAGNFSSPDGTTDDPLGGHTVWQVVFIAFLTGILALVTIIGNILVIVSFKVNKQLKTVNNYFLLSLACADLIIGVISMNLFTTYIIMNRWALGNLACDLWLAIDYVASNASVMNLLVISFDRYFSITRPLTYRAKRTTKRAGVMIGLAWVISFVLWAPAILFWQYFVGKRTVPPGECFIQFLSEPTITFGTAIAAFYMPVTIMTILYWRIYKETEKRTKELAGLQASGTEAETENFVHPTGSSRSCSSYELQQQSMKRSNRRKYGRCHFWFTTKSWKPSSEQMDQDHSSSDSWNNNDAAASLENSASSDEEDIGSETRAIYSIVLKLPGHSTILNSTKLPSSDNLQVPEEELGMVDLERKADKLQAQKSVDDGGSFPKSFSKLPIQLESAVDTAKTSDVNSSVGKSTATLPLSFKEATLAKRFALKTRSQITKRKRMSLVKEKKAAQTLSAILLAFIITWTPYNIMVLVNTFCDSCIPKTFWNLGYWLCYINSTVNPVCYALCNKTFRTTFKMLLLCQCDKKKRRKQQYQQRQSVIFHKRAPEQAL

[5] = CHO cells stably expressing human M1
[6] = CHO cells stably expressing human M4
[7] = phospho-ERK1/2, * = variable results

SMILES	EC50 [1, 5]	Emax ([1]; relative to ACh)	EC50 [2, 6]	Emax ([2]; relative to ACh)	EC50 [3]	Emax ([3]; relative to ACh)	Emax ([4]; relative to ACh)	EC50 [4, 7]	% Emax cf. ACh, M1 ([1]; CHO cells stably expressing human M1, relative to ACh)	% Emax cf. ACh, M4 ([2]; CHO cells stably expressing human M4, relative to ACh)	pEC50 M2 ([3]; CHO cells stably expressing human M2, phospho-ERK1/2, * = variable results)	% Emax cf. ACh, M2 ([3]; CHO cells stably expressing human M2, relative to ACh)	pEC50 M3 ([4]; CHO cells stably expressing human M3, phospho-ERK1/2, * = variable results)	% Emax cf. ACh, M3 ([4]; CHO cells stably expressing human M3, relative to ACh)
COC(=O)N1CCC2(CC(N3CCC(c4nccs4)CC3)C2)C1 (single isomer, unassigned) [1-24 Isomer 2, methyl 2-[4-(1,3-thiazol-2-yl)piperidin-1-yl]-6-azaspiro[3.4]octane-6-carboxylate]	251 nM	102%	25.1 nM	78%	6310 nM	32%	0%	> 20000 nM	–	–	–	–	–	–
CCOC(=O)N1CCC2(CC(N3CCC([C@@H]4CCCN4C(=O)N4CCC4)CC3)C2)C1 (single isomer, unassigned) [2-27 Isomer 2]	31.6 nM	24%	10 nM	73%	> 20000 nM	0.4%	15%	> 20000 nM	–	–	–	–	–	–
CCOC(=O)N1CCC2(CC(N3CCC(c4cscn4)CC3)C2)C1 (single isomer, unassigned) [1-50 Isomer 2, ethyl 2-[4-(1,3-thiazol-4-yl)piperidin-1-yl]-6-azaspiro[3.4]octane-6-carboxylate]	7.94 nM	124%	2 nM	122%	> 20000 nM	20%	8%	> 20000 nM	–	–	–	–	–	–
CCOC(=O)N1CCC2(CC(N3CCC([C@@H]4CCCN4C(=O)NCc4ccccn4)CC3)C2)C1 (single isomer, unassigned) [2-54 Isomer 2]	50.1 nM	–	1.26 nM	–	–	–	–	–	86%	134%	< 4.7	8%	< 4.7	23%
CCOC(=O)N1CCC2(CC(N3CCC([C@@H]4CCCN4CC(=O)OC)CC3)C2)C1 (single isomer, unassigned) [2-72 Isomer 2]	794 nM	30%	79.4 nM	52%	> 20000 nM	13%	10%	> 20000 nM	–	–	–	–	–	–
CCOC(=O)N1CCC2(CC(N3CCC([C@@H]4CCCN4C(=O)NCC(F)(F)F)CC3)C2)C1 (single isomer, unassigned) [2-26 Isomer 2]	12.6 nM	92%	6.31 nM	99%	> 20000 nM	66%	4%	> 20000 nM	–	–	–	–	–	–
CCOC(=O)N1CCC2(CC(N3CCC(N4CCCC45CCOC5=O)CC3)C2)C1 (single isomer, unassigned) [2-96 Isomer 2, ethyl 2-[4-(6-oxo-7-oxa-1-azaspiro[4.4]non-1-yl)piperidin-1-yl]-6-azaspiro[3.4]octane-6-carboxylate]	> 20000 nM	2%	126 nM	63%	> 20000 nM	1%	5%	> 20000 nM	–	–	–	–	–	–
CCOC(=O)N1CCC2(CC(N3CCC([C@@H]4CCCN4C(=O)N(C)Cc4ccccn4)CC3)C2)C1 (single isomer, unassigned) [2-63 Isomer 2]	251 nM	34%	63.1 nM	60%	> 20000 nM	0%	4%	> 20000 nM	–	–	–	–	–	–
CCOC(=O)N1CCC2(CC(N3CCC([C@@H]4CCCN4C(=O)COC)CC3)C2)C1 (single isomer, unassigned) [2-46 Isomer 2]	1580 nM	32%	15.8 nM	85%	> 20000 nM	5%	8%	> 20000 nM	–	–	–	–	–	–
CCOC(=O)N1CCC2(CC(N3CCC([C@@H]4C[C@H](F)CN4C(=O)CC)CC3)C2)C1 (single isomer, unassigned) [2-59 Isomer 2]	3160 nM	28%	251 nM	67%	> 20000 nM	11%	7%	> 20000 nM	–	–	–	–	–	–
CCOC(=O)N1CCC2(CC(N3CCC([C@@H]4CCCN4Cc4ccccc4)CC3)C2)C1 (single isomer, unassigned) [2-74 Isomer 2]	> 20000 nM	18%	79.4 nM	54%	> 20000 nM	16%	8%	> 20000 nM	–	–	–	–	–	–
CCOC(=O)N1CCC2(CC(N3CCC([C@@H]4CCCN4C(=O)N4CC(F)(F)C4)CC3)C2)C1 (single isomer, unassigned) [2-39 Isomer 2]	2510 nM	41%	15.8 nM	76%	> 20000 nM	1%	1%	> 20000 nM	–	–	–	–	–	–
CCOC(=O)N1CCC2(CC(N3CCC(C4CCCN(C(C)C)C4=O)CC3)C2)C1 (single isomer, unassigned) [4-6 Isomer 2, ethyl 2-[2-oxo-1-(propan-2-yl)-3,4′-bipiperidin-1′-yl]-6-azaspiro[3.4]octane-6-carboxylate]	126 nM	66%	50.1 nM	77%	> 20000 nM	75%	9%	> 20000 nM	–	–	–	–	–	–
CCOC(=O)N1CCC2(CC(N3CCC(c4ncc(Cl)n4C)CC3)C2)C1 (single isomer, unassigned) [1-14 Isomer 2, ethyl 2-[4-(5-chloro-1-methyl-1H-imidazol-2-yl)piperidin-1-yl]-6-azaspiro[3.4]octane-6-carboxylate]	631 nM	66%	50.1 nM	99%	> 20000 nM	27%	5%	> 20000 nM	–	–	–	–	–	–
CCOC(=O)N1CCC2(CC(N3CCC([C@@H]4CCCN4c4ccccn4)CC3)C2)C1 (single isomer, unassigned) [2-79 Isomer 2]	501 nM	37%	31.6 nM	70%	> 20000 nM	2%	19%	> 20000 nM	–	–	–	–	–	–
CCOC(=O)N1CCC2(CC(N3CCC([C@@H]4CCCN4C(=O)CC(F)(F)F)CC3)C2)C1 (single isomer, unassigned) [2-53 Isomer 2]	79.4 nM	109%	7.94 nM	126%	> 20000 nM	10%	21%	6310 nM	–	–	–	–	–	–
CCOC(=O)N1CCC2(CC(N3CCC(N4CCC[C@@H]4C(F)F)CC3)C2)C1 (single isomer, unassigned) [2-103 Isomer 2]	200 nM	26%	20 nM	100%	> 20000 nM	4%	3%	> 20000 nM	–	–	–	–	–	–
CCOC(=O)N1CCC2(CC(N3CCC([C@@H]4CCCN4C(=O)OCCNC)CC3)C2)C1 (single isomer, unassigned) [2-67 Isomer 2]	> 20000 nM	19%	20 nM	79%	> 20000 nM	67%	1%	> 20000 nM	–	–	–	–	–	–
